{
  "source": "patent US8008346B2",
  "about": "“Chemotherapeutic agents for inhibition of protein translation” (The Royal University for the Advancement of Learning/McGill …, priority 2006, dated 2011)",
  "key": {"eIF4AIf": {"target": "T1, eIF4AIf (Mus musculus, UniProt P60843)", "T1 construct": "inferred only from the Ni-NTA purification; made in house; host or cells: Escherichia coli BL21 (DE3) codon+", "T1 sequence (P60843 whole entry)": "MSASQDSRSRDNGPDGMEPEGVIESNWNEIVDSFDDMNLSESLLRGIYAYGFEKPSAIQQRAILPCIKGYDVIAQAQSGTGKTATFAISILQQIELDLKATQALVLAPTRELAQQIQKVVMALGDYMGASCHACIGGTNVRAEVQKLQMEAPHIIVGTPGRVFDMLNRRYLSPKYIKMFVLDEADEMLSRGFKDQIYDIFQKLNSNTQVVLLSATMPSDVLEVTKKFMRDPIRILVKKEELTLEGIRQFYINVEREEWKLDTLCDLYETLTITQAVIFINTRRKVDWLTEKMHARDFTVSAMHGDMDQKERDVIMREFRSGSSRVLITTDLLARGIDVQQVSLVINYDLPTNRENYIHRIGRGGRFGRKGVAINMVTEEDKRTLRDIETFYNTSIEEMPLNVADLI", "test": "UV crosslinking of alpha-32P-ATP to recombinant eIF4AIf", "format": "binding, murine", "settings": "50 μM", "experimental": "(§1) FIG. 7. Effects of hippuristanol on ATP hydrolysis, ATP binding, and RNA binding activities of eIF4A. A. Hippuristanol inhibits eIF4AIf RNA-dependent ATPase activity. The rate of ATP hydrolysis as a function of hippuristanol concentration is plotted relative to the rate obtained in the presence of vehicle (0.5% DMSO). ATP hydrolysis was measured in the presence of 2.5 μM poly (U) and monitored by thin layer chromatography. […] Samples were resolved by SDS-PAGE and subjected to autoradiography. C. The RNA binding activity of eIF4AIf is inhibited by hippuristanol. Oxidized ^32P-cap labeled CAT mRNA was incubated with recombinant eIF4AIf in the absence (lane 2) or presence of ATP (lanes 1, 3-6), 0.6 mM m^7GDP (lane 3), 0.6 mM GDP (lane 4), or 50 μM hippuristanol (lane 6). Following treatment with RNase A, samples were resolved by SDS-PAGE and subjected to autoradiography. The asterisk denotes the position of migration of a ˜30 kDa contaminant in the recombinant eIF4AIf preparation used as an internal loading reference. D. The RNA binding activity of eIF4Ac is inhibited by hippuristanol. Oxidized ^32P-cap labeled CAT mRNA was incubated with 0.7 μg of native eIF4F in the absence (lane 1) or presence (lane 2) of 50 μM hippuristanol. […]\nRecombinant eIF4AI Purification and Assays. […] Quantifications were performed on a Fujix BAS2000 phosphoimager with a Fuji imaging screen. […]"}, "eIF4Ac": {"target": "eIF4Ac (Homo sapiens, UniProt P60842)", "sequence (P60842 whole entry)": "as the sequence (P60843 whole entry) above", "sequence (P06730 whole entry partner)": "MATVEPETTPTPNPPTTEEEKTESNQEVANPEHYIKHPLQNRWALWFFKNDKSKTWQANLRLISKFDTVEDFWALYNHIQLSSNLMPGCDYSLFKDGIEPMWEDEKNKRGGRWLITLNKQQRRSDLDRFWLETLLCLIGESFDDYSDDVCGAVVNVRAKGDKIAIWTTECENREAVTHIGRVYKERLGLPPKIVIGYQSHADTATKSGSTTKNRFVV", "sequence (Q04637 whole entry partner)": "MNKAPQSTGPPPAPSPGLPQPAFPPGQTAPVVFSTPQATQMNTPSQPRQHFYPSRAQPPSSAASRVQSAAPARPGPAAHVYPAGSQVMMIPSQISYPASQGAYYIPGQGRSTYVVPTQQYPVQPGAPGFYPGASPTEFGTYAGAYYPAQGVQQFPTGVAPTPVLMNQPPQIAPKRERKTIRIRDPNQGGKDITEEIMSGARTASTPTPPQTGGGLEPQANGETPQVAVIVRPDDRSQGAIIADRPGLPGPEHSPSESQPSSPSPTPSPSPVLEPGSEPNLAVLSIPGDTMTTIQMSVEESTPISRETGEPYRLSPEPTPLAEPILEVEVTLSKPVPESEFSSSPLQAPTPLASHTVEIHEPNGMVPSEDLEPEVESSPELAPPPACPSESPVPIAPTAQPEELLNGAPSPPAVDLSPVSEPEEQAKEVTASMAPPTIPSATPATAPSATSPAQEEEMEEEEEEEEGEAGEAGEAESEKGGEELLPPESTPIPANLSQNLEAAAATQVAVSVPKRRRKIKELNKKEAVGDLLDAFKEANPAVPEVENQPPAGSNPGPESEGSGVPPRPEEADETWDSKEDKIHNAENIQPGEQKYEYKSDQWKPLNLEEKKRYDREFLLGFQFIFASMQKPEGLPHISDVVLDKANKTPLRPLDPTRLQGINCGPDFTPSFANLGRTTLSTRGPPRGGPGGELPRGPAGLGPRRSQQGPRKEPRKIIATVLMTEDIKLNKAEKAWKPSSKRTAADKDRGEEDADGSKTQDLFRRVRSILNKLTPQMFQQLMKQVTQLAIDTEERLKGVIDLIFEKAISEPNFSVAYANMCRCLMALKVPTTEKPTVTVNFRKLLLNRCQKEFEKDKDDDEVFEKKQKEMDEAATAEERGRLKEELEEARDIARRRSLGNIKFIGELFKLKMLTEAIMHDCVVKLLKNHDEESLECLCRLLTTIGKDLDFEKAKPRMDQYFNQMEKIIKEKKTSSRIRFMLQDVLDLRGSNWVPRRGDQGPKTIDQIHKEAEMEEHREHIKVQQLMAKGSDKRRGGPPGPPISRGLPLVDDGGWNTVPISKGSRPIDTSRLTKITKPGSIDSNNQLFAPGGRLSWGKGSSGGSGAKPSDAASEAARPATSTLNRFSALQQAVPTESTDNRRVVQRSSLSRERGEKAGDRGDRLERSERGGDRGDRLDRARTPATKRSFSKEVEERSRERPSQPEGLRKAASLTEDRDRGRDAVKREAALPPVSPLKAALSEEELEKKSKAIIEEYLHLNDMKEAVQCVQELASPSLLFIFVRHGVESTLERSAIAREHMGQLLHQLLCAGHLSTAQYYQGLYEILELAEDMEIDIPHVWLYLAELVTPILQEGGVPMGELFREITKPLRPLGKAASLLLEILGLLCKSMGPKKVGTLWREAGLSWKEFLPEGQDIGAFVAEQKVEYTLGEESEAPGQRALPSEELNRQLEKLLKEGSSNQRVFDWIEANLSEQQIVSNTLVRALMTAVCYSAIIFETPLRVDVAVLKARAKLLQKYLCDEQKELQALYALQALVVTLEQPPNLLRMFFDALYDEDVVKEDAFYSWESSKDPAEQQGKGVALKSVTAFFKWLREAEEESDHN", "test": "Crosslinking of oxidized 32P-cap labeled CAT mRNA to native eIF4F (RNA binding)", "settings": "50 μM, 0.7 μg native eIF4F", "experimental": "as §1\nRibosome Binding and mRNA Crosslinking. […] Fractions of 500 μl were collected and radioactivity was determined by scintillation counting. […]"}, "[1]": {"test_system": "Mahoney strain of poliovirus type 1", "format": "cell-based", "settings": "HeLa cells, 2 pfu/cell, 80 nM"}},
  "data": [
    {"smiles": "C[C@H]1C[C@@]2(O[C@H]3C[C@H]4[C@@H]5CC[C@H]6C[C@H](O)CC[C@]6(C)[C@H]5[C@@H](O)C[C@]4(C)[C@H]3[C@@]2(C)O)OC1(C)C", "note": "[Hippuristanol, hippuristanol]", "values": [
      {"measurement": "ATP crosslinking to eIF4AIf", "setting": "eIF4AIf", "result": "does not affect"},
      {"measurement": "RNA binding activity of eIF4Ac", "setting": "eIF4Ac", "result": "inhibited"},
      {"measurement": "eIF4GII cleavage following poliovirus infection", "setting": "[1]", "result": "delays"},
      {"measurement": "onset of poliovirus proteins during infection", "setting": "[1]", "result": "delays"}
    ]}
  ]
}
